Data: US20240342150A1 (priority 2021, published 2024)
Like-named read-outs stand apart in the source and are kept apart here.

What was measured:
[1] = test system: SARS-CoV-2 (Wuhan); test: microbe, parasite or virus in culture; format: cell-based; settings: Severe acute respiratory syndrome coronavirus 2, Vero C1008
[2] = test system: Vero E6 cells; settings: for % viable cells: not infected Vero E6 cells

`O=C(c1ccc(OCCN2CCCCC2)cc1)c1c(-c2ccc(O)cc2)sc2cc(O)ccc12` [Raloxifene, 1-[6-hydroxy-2-(4-hydroxyphenyl)benzo[b]thien-3-yl]-1-[4-[2-(1-piperidinyl)ethoxy]phenyl]methanone] was tested, and the IC50 [1] was 5.92 µM, the “% viable cells” value ([2]; Raloxifene 0.23 μM, 48 h) was 100% and the “% viable cells” value ([2]; Raloxifene 0.23 μM, 72 h) was 102%. For the same molecule, the “% viable cells” value ([2]; Raloxifene 0.46 μM, 48 h) was 95%, the “% viable cells” value ([2]; Raloxifene 0.46 μM, 72 h) was 95% and the “% viable cells” value ([2]; Raloxifene 0.94 μM, 48 h) was 95%. The “% viable cells” value ([2]; Raloxifene 0.94 μM, 72 h) was 96%, the “% viable cells” value ([2]; Raloxifene 1.87 μM, 48 h) was 99% and the “% viable cells” value ([2]; Raloxifene 1.87 μM, 72 h) was 97%. For the same molecule, the “% viable cells” value ([2]; Raloxifene 3.75 μM, 48 h) was 93%, the “% viable cells” value ([2]; Raloxifene 3.75 μM, 72 h) was 96% and the “% viable cells” value ([2]; Raloxifene 7.5 μM, 48 h) was 92%. For the same molecule, the “% viable cells” value ([2]; Raloxifene 7.5 μM, 72 h) was 97%, the “% viable cells” value ([2]; Raloxifene 15 μM, 48 h) was 86% and the “% viable cells” value ([2]; Raloxifene 15 μM, 72 h) was 76%. For the same molecule, the “effect on cell viability” value ([2]; Raloxifene 15 μM, crystal violet staining) was “reduced percentage of viable cells” and the “effect on cell viability” value ([2]; lower drug concentrations (7.5 to 0.23 μM)) was “No significant effect on cell viability”.
